Test results published in patent publication US20260234165A1, “MACROCYCLIC COMPOUNDS, PREPARATION METHOD THEREFOR, AND USE THEREOF” (GENFLEET THERAPEUTICS (SHANGHAI) INC., priority 2004, published 2026).
Counter-ions that a name gives are not always drawn. Like-named read-outs stand apart in the source and are kept apart here.

Legend:
Format in all cases: cell-based, human
[1] = test system: AsPC-1 cells (KRAS G12D mutation); assay: 3D cell proliferation assay (CellTiter Glo-3D), AsPC-1; conditions: medium with 2% FBS, read-out: AsPC-1 AP IC50
Method in brief: (§1)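 Luminescent CellTiter-Glo 3D readout after 5-day compound exposure (3.16-fold series, 0.1% DMSO, 2% FBS medium) at 37°C on 800 cells/well plated the day before; IC50 from four-parameter curve of inhibition relative to DMSO and blank wells.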

[2] = test system: p-ERK in AsPC-1 cells (KRAS G12D mutation); assay: Cell p-ERK assay (HTRF) in AsPC-1 cells
Method in brief: (§2)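 Seed 10000 AsPC-1 or 20000 NCI-H441 cells/well, overnight 37 °C/5% CO2. Cpd 3.16-fold series, 0.1% DMSO final, 3 h. Lyse 30 min, HTRF p-ERK (T202/Y204) Ab 4 h. IC50: 4-parameter fit of IR% normalised to DMSO and blank.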

[3] = test system: NCI-H441 cells; assay: 3D cell proliferation assay (CellTiter Glo-3D), NCI-H441; conditions: medium with 2% FBS, read-out: H441 AP IC50
Method in brief: as §1

[4] = test system: p-ERK in NCI-H441 cells (KRAS G12V mutation); assay: Cell p-ERK assay (HTRF) in NCI-H441 cells
Method in brief: as §2

[5] = Homo sapiens, ASPC1, 3D cell proliferation (CellTiter Glo-3D)
[6] = Homo sapiens, ASPC1, 3 h, AsPC-1 cells, 3 h compound incubation, HTRF p-ERK T202/Y204, read-out: AsPC-1 p-ERK IC50
[7] = Homo sapiens, NCI-H441, 3D cell proliferation (CellTiter Glo-3D)
[8] = Homo sapiens, NCI-H441, 3 h, NCI-H441 cells, 3 h compound incubation, HTRF p-ERK T202/Y204, read-out: H441 p-ERK IC50
[9] = 3D cell proliferation (CellTiter Glo-3D)
[10] = Homo sapiens, ASPC1, 3 h, read-out: AsPC-1 p-ERK IC50(nM)
[11] = Homo sapiens, 3D cell proliferation (CellTiter Glo-3D)
[12] = Homo sapiens, NCI-H441, 3 h, read-out: H441 p-ERK IC50(nM)

Row | Compound | IC50 [1, 5] [nM] | IC50 [2, 6] [nM] | IC50 [3, 7] [nM] | IC50 [4, 8] [nM] | IC50 [1, 9] [nM] | IC50 ([2]; AsPC-1 cells, 3 h compound incubation, HTRF p-ERK T202/Y204, read-out: AsPC-1 p-ERK IC50) [nM] | IC50 [3, 9] [nM] | IC50 ([4]; NCI-H441 cells, 3 h compound incubation, HTRF p-ERK T202/Y204, read-out: H441 p-ERK IC50) [nM] | IC50 [2, 10] [nM] | IC50 [3, 11] [nM] | IC50 [4, 12] [nM]
1 | CCn1c(-c2cc(C#CCN3CCCNCC3)cnc2[C@H](C)OC)c2c3cc(ccc31)-c1csc(n1)C[C@H](NC(=O)[C@H]1[C@H](C)[C@@H]1C)C(=O)N1CCC[C@H](N1)C(=O)OCC(C)(C)C2 (atropisomer, axis not shown; (Ra)) [Compound Z951] | 0.36 | 0.42 | 0.43 | 0.5 | – | – | – | – | – | – | –
2 | CO[C@@H](C)c1ncc(C#CCN2CCS(=O)(=O)CC2)cc1-c1c2c3cc(ccc3n1CCO)-c1csc(n1)C[C@H](NC(=O)[C@H]1[C@H](C)[C@@H]1C)C(=O)N1CCC[C@H](N1)C(=O)OCC(C)(C)C2 (atropisomer, axis not shown; (Ra)) [Compound Z952, (1r,2R,3S)—N-((6^3S,4S,Z)—(Ra)-1^2-(5-(3-(1,1-dioxidothiomorpholino)prop-1-yn-1-yl)-2-((S)-1-methoxyethyl)pyridin-3-yl)-1^1-(2-hydroxyethyl)-10,10-dimethyl-5,7-dioxo-6^1,6^2,6^3,6^4,6^5,6^6-hexahydro-1^1H-8-oxa-2(4,2)-thiazola-1(5,3)-indola-6(1,3)-pyridazinacycloundecaphane-4-yl)-2,3-dimethylcyclopropane-1-carboxamide] | 0.27 | 0.53 | 0.34 | 0.54 | – | – | – | – | – | – | –
3 | CCn1c(-c2cc(C#CCN3CCCS(=O)(=O)CC3)cnc2[C@H](C)OC)c2c3cc(ccc31)-c1csc(n1)C[C@H](Nc1nnc3cc(C)ccn13)C(=O)N1CCC[C@H](N1)C(=O)OCC(C)(C)C2 (atropisomer, axis not shown; (Ra)) [Compound Z979] | 5.14 | 2.47 | 1.23 | 1.05 | – | – | – | – | – | – | –
4 | CCn1c(-c2cc(C#CCN3CC[C@H](C#N)C3)cnc2[C@H](C)OC)c2c3cc(ccc31)-c1csc(n1)C[C@H](Nc1nnc3cc(C)ccn13)C(=O)N1CCC[C@H](N1)C(=O)OCC(C)(C)C2 (atropisomer, axis not shown; (Ra)) [Compound Z1011, (3S)-1-(3-(5-((6^3S,4S,Z)—(Ra)-1^1-ethyl-10,10-dimethyl-4-((7-methyl-[1,2,4]triazolo[4,3-a]pyridin-3-yl)amino)-5,7-dioxo-6^1,6^2,6^3,6^4,6^5,6^6-hexahydro-1^1H-8-oxa-2(4,2)-thiazola-1(5,3)-indola-6(1,3)-pyridazinacycloundecaphane-1-yl)-6-((S)-1-methoxyethyl)pyridin-3-yl)prop-2-yn-1-yl)pyrrolidine-3-carbonitrile] | – | – | – | – | 2.07 | 2.89 | 1.54 | 1.22 | – | – | –
5 | CCn1c(-c2cc(C#CCN3CCCOCC3)cnc2[C@H](C)OC)c2c3cc(ccc31)-c1csc(n1)C[C@H](NC(=O)C1[C@H]3COC[C@@H]13)C(=O)N1CCC[C@H](N1)C(=O)OCC(C)(C)C2 (atropisomer, axis not shown; (Ra)) [Compound Z1030] | 0.39 | 0.17 | 0.28 | 0.17 | – | – | – | – | – | – | –
6 | CCn1c(-c2cc(C#CCN3CCC3)cnc2[C@H](C)OC)c2c3cc(ccc31)-c1csc(n1)C[C@H](NC(=O)[C@H]1[C@@H]3COC[C@@H]31)C(=O)N1CCC[C@H](N1)C(=O)OCC(C)(C)C2 (atropisomer, axis not shown; (Ra)) [Compound Z1031, (1R,5S,6r)-N-((6^3S,4S,Z)-1^2-(5-(3-(azetidin-1-yl)prop-1-yn-1-yl)-(Ra)-2-((S)-1-methoxyethyl)pyridin-3-yl)-1^1-ethyl-10,10-dimethyl-5,7-dioxo-6^1,6^2,6^3,6^4,6^5,6^6-hexahydro-1^1H-8-oxa-2(4,2)-thiazola-1(5,3)-indola-6(1,3)-pyridazinacycloundecaphane-4-yl)-3-oxabicyclo[3,1,0]hexane-6-carboxamide] | 1.47 | 0.74 | 0.91 | 0.67 | – | – | – | – | – | – | –
7 | CCn1c(-c2cc(C#CCN3CCCOCC3)cnc2[C@H](C)OC)c2c3cc(ccc31)-c1csc(n1)C[C@H](NP1(=O)CC(C)=C(C)C1)C(=O)N1CCC[C@H](N1)C(=O)OCC(C)(C)C2 (atropisomer, axis not shown; (Ra)) [Compound Z1032, (6^3S,4S,Z)—(Ra)-1^2-(5-(3-(1,4-oxazepan-4-yl)prop-1-yn-1-yl)-2-((S)-1-methoxyethyl)pyridin-3-yl)-4-((3,4-dimethyl-1-oxido-2,5-dihydrophosphol-1-yl)amino)-1^1-ethyl-10,10-dimethyl-6^1,6^2,6^3,6^4,6^5,6^6-hexahydro-1^1H-8-oxa-2(4,2)-thiazola-1(5,3)-indola-6(1,3)-pyridazinacycloundecaphane-5,7-dione] | 20.9 | 7.52 | 8.14 | 2.18 | – | – | – | – | – | – | –
8 | CCn1c(-c2cc(C#CCN3CCC(O)(c4cccc[n+]4[O-])CC3)cnc2[C@H](C)OC)c2c3cc(ccc31)-c1csc(n1)C[C@H](NC(=O)[C@H]1[C@H](C)[C@@H]1C)C(=O)N1CCC[C@H](N1)C(=O)OCC(C)(C)C2 (atropisomer, axis not shown; (Ra)) [Compound Z1047, 2-(1-(3-(5-((6^3S,4S,Z)-4-((1r,2R,3S)-2,3-dimethylcyclopropane-1-carboxamido)-1^1-ethyl-10,10-dimethyl-5,7-dioxo-6^1,6^2,6^3,6^4,6^5,6^6-hexahydro-1^1H-8-oxa-2(4,2)-thiazola-1(5,3)-indola-6(1,3)-pyridazinacycloundecaphane-1^2-yl)-(Ra)-6-((S)-1-methoxyethyl)pyridin-3-yl)prop-2-yn-1-yl)-4-hydroxypiperidin-4-yl)pyridine-1-oxide formate] | 0.37 | – | – | – | – | – | – | – | 0.24 | 0.24 | 0.22
9 | CCn1c(-c2cc(C#CCN3CCC(Nc4ccccc4P(C)(C)=O)CC3)cnc2[C@H](C)OC)c2c3cc(ccc31)-c1csc(n1)C[C@H](NC(=O)[C@H]1[C@H](C)[C@@H]1C)C(=O)N1CCC[C@H](N1)C(=O)OCC(C)(C)C2 (atropisomer, axis not shown; (Ra)) [Compound Z1062, (1r,2R,3S)—N-((6^35,4S,Z)-1^2-(5-(3-(4-((2-(dimethylphosphoryl)phenyl)amino)piperidin-1-yl)prop-1-yn-1-yl)-(Ra)-2-((S)-1-methoxyethyl)pyridin-3-yl)-1^1-ethyl-10,10-dimethyl-5,7-dioxo-6^1,6^2,6^3,6^4,6^5,6^6-hexahydro-1^1H-8-oxa-2(4,2)-thiazola-1(5,3)-indola-6(1,3)-pyridazinacycloundecaphane-4-yl)-2,3-dimethylcyclopropane-1-carboxamide] | 0.94 | 0.82 | 1.3 | 0.53 | – | – | – | – | – | – | –
10 | COCCn1c(-c2cc(C#CCN(C)C[Si](C)(C)C)cnc2[C@H](C)OC)c2c3cc(ccc31)-c1csc(n1)C[C@H](NC(=O)[C@H]1[C@@H]3COC[C@@H]31)C(=O)N1CCC[C@H](N1)C(=O)OCC(C)(C)C2 (atropisomer, axis not shown; (Ra)) [Compound Z1091, (1R,5S,6r)-N-((6^3S,4S,Z)-1^1-(2-methoxyethyl)-1^2-(Ra)-(2-((S)-1-methoxyethyl)-5-(3-(methyl((trimethylsilyl)methyl)amino)prop-1-yn-1-yl)pyridin-3-yl)-10,10-dimethyl-5,7-dioxo-6^1,6^2,6^3,6^4,6^5,6^6-hexahydro-1^1H-8-oxa-2(4,2)-thiazola-1(5,3)-indola-6(1,3)-pyridazinacycloundecaphane-4-yl)-3-oxabicyclo[3.1.0]hexane-6-carboxamide] | 1.67 | – | – | – | – | – | – | – | 2.34 | 2.01 | 1.92
11 | CCn1c(-c2cc(OCCN3CCOC4(CC4)C3)cnc2[C@H](C)OC)c2c3cc(ccc31)-c1csc(n1)C[C@H](NC(=O)[C@H]1[C@H](C)[C@@H]1C)C(=O)N1CCC[C@H](N1)C(=O)OCC(C)(C)C2 (atropisomer, axis not shown; (Sa)) [Compound Z551, (1r,2R,3S)—N-((6^3R,4R,Z)—(Sa)-1^2-(5-(2-(4-oxa-7-azaspiro[2,5]octan-7-yl)ethoxy)-2-((S)-1-methoxyethyl)-3-ylpyridin)-1^1-ethyl-10,10-dimethyl-5,7-dioxo-6^1,6^2,6^3,6^4,6^5,6^6-hexahydro-1^1H-8-oxa-2(4,2)-thiazola-1(5,3)-indola-6(1,3)-pyridazinacycloundecaphane-4-yl)-2,3-dimethylcyclopropane-1-carboxamide] | 0.32 | 0.29 | 0.37 | 0.27 | – | – | – | – | – | – | –
